{
  "source": "patent US20120245028A1",
  "about": "“Methods for Use of Tetraalkyl Ammonium Halide Compositions as Post-emergence Higher Plant Herbicides” (priority 2011, published 2012)",
  "origin": "cited, not measured here",
  "key": {"[1]": {"system": "infected field apple trees", "conditions": "infected field apple trees treated with 5% solution"}, "[2]": {"system": "small apple tree seedlings", "conditions": "following fungus inoculation and a treatment with 5% solution"}},
  "data": [
    {"smiles": "CCCCCCCCCC[N+](C)(C)CCCCCCCCCC.[Br-]", "note": "[DDAB, didecyl dimethyl ammonium bromide]", "values": [
      {"measurement": "damage caused by the treatments", "setting": "[1]", "result": "no obvious damage"},
      {"measurement": "effect upon the total number of growing buds", "setting": "[1]", "result": "no effect"},
      {"measurement": "phytotoxicity", "setting": "[2]", "result": "severe phytotoxicity"}
    ]}
  ]
}
